Tested on: pancreatic islets obtained from adipose tissue-derived cells
Test: Insulin secretion from pancreatic islets obtained from adipose tissue-derived cells, ELISA of culture supernatant
Assay type: cell-based, Human
Details: 2 hours; for secretion of insulin: RPMI 1640 containing 3.3 mM or 16.7 mM glucose, FIG. 17
Method: The insulin level and the C-peptide level in the culture supernatant were measured using ELISA kit (Mercodia).

Row | Structure (SMILES) | secretion of insulin (100 μM) | amount (insulin, C-peptide) secreted by islets in medium containing theophylline versus medium without (10 mM theophylline control, 3.3 mM or 16.7 mM glucose, FIGS. 14-16) | secretion of insulin (10 μM)
1 | CC(C)Cn1c(=O)n(C)c(=O)c2[nH]cnc21 [IBMX] | promoted |  | 
2 | C[N+](C)(C)CCOC(N)=O [carbachol] | promoted |  | 
3 | Cn1c(=O)c2[nH]cnc2n(C)c1=O [theophylline] | promoted | similar | 
4 | CCCCNC(=O)NS(=O)(=O)c1ccc(C)cc1 [tolbutamide] |  |  | promoted
